Results: patent US10316050B2, “PT (IV) complexes containing 4,4′-disubstituted-2,2′-bipyridyl and their use in cancer therapy” (THE BOARD OF REGENTS OF THE NEVADA SYSTEM OF HIGHER …, priority 2014, dated 2019)

Assays:
[1] = test system: cleaved-PARP in DU145 cells; experiment: Flow cytometry of cleaved-PARP, DU145; type: cell-based, human; settings: DU145, 10 μM Pt(IV)-4C or 2.5 μM Pt(IV)-5C for 2 hours, analyzed seven hours post treatment
Experimental: FIG. 12 is a series of histograms indicating Pt(IV)-4C and Pt(IV)-5C-induced cleavage of PARP in A549 cells (top panels) and in DU145 cells (bottom). A549 cells were treated for 5 hours with control (left), 25 μM Pt(IV)-4C (center), or 7.5 μM Pt(IV)-5C (right), and analyzed 12 hours post treatment. DU145 cells were treated for 2 hours with control (left), 10 μM Pt(IV)-4C (center), or 2.5 μM Pt(IV)-5C (right), and analyzed seven hours post treatment. Data are representative of three independent experiments.
Cells (200,000 to 250,000) were seeded in 60 mm dishes and incubated at 37° C. in a humidified, 5% CO2 atmosphere for 2 days to reach ˜50-60% confluence. The cells were treated with the platinum complexes as indicated, the floating cells were collected, and both attached and floating cells were washed 2× with PBS. The cells were resuspended in fresh medium and incubated as indicated. After incubation, both the floating and attached cells were collected and fixed by incubation in 4% formaldehyde for 10 minutes at room temperature. The fixed cells were pelleted and permeabilized by incubation in 500 μL of ice-cold methanol at 4° C. for 10 minutes. The samples were stored at −20° C. until analysis. For analysis, the cells were pelleted and washed 2× with 1% BSA in PBS. […] After washing 2× with 1% BSA, the cells were resuspended in PBS and analyzed on a Becton Dickinson FACS Calibur. […]

A549 cells = experiment: Annexin V/PI flow cytometry, A549; type: cell-based, human; settings: A549, 25 μM Pt(IV)-4C or 10 μM Pt(IV)-5C for 5 hours, analyzed 12 hours post treatment
Experimental: FIG. 11 is a series of graphs showing flow cytometry analysis of Annexin V/PI staining in A549 cells (top) and DU145 cells (bottom) treated with Pt(IV)-4C and Pt(IV)-5C. A549 cells were treated for 5 hours with control (left), 25 μM Pt(IV)-4C (center), or 10 μM Pt(IV)-5C (right), and analyzed 12 hours post treatment. DU145 cells were treated for 1 hour with control (left), 10 μM Pt(IV)-4C (center), or 2.5 μM Pt(IV)-5C (right) and analyzed 12 hours post treatment. Q1=PI+, represents necrotic cells; Q2=Annexin V/PI+, representing late apoptotic/necrotic cells; Q3=Annexin V+, representing early apoptotic cells; Q4=AnnexinV/PI−, representing live cells. Data are representative of three independent experiments.
Cells (˜50 to 60% confluent in 60 mm dishes) were treated as indicated with the platinum compound. After treatment, the floating cells were collected, and both attached and floating cells were washed 2× with PBS. The cells were resuspended in fresh medium and incubated as indicated. The cells were harvested (both the floating and attached cells were collected), counted, and pelleted. The cells were then washed two times with 5 mL of Ca^2+ and Mg^2+ free PBS. The pellets were then washed in 2.0 mL of 1× Annexin-V Binding buffer (BD Bioscience, San Jose, CAS) and centrifuged at 500×g for 5 minutes. […] A quantitative measure of these event shifts was accomplished by gating. […]

Compound | fold increase of cleaved-PARP [1] [fold] | Annexin V/PI staining (apoptosis) (A549 cells)
CC(=O)[O][Pt]([Cl])([Cl])[O]C(C)=O.CCCCCOc1ccnc(-c2cc(OCCCCC)ccn2)c1 [Pt(IV)-5C, [Pt(IV)Cl2(OAc)2(4,4′-dipentoxy-2,2′-bipyridine)]] | ~2 | induce apoptosis
[Pt(IV)Cl2(OAc)2(4,4′-dibutoxy-2,2′-bipyridine)] [Pt(IV)-4C] | ~2 | induce apoptosis
